Source: patent publication US6872743B2, “sPLA2 inhibitors” (Eli Lilly and Company, priority 2000, dated 2005)

Target: T1, recombinant human secreted phospholipase A2 (Homo sapiens, UniProt P14555)
T1 sequence (P14555 21-144): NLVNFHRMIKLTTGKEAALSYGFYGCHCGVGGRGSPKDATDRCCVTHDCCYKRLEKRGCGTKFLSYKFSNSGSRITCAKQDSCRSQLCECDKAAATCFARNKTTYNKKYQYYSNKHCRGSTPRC
Assay: chromogenic assay for inhibitors of recombinant human secreted phospholipase A2
Type: biochemical
Settings: diheptanoyl thio-PC substrate, pH 7.5, 40° C. for 30 minutes, absorbance at 405 nanometers, titrated in triplicate
Excerpt: The following chromogenic assay procedure was used to identify and evaluate inhibitors of recombinant human secreted phospholipase A2. The assay described herein has been adapted for high volume screening using 96 well microtiter plates. A general description of this assay method is found in the article, “Analysis of Human Synovial Fluid Phospholipase A2 on Short Chain Phosphatidylcholine-Mixed Micelles: Development of a Spectrophotometric Assay Suitable for a Microtiterplate Reader”, by Laure J. Reynolds, Lori L. Hughes, and Edward A Dennis, Analytical Biochemistry, 204, pp. 190-197, 1992 (the disclosure of which is incorporated herein by reference):
A measured volume of racemic dipheptanoyl thio PC supplied in chloroform at a concentration of 100 mg/ml is taken to dryness and redissolved in 10 millimolar TRITON X-100™ nonionic detergent aqueous solution. Reaction Buffer is added to the solution, then DTNB to give the Reaction Mixture.
The reaction mixture thus obtained contains 1 mM diheptanoly thio-PC substrate, 0.29 mm Triton X-100™ detergent, and 0.12 mm DTMB in a buffered aqueous solution at pH 7.5.
• 1. Add 0.2 ml reaction mixture to all wells; • 2. Add 10 ul test compound (or solvent blank) to appropriate wells, mix 20 seconds; • 3. Add 50 nanograms of sPLA2 (10 microliters) to appropriate wells; • 4. Incubate plate at 40° C. for 30 minutes; • 5. Read absorbance of wells at 405 nanometers with an automatic plate reader.
Tests were done in triplicate. Typically, compounds were tested at a final concentration of 5 ug/ml. […] Lack of color development at 405 nanometers evidenced inhibition. Compounds initially found to be active were re-assayed to confirm their activity and, if sufficiently active, IC50 values were determined. […] In all cases, % inhibition measured at 405 nanometers generated by enzyme reactions containing inhibitors relative to the uninhibited control reactions was determined. […] IC50 values were determined by plotting log concentration versus inhibition values in the range from 10-90% inhibition.

| IC50 | Compound |
| --- | --- |
| 0.015 µM | NC(=O)c1cccc2c1c1c(OCC(=O)O)cc3c(c1n2Cc1ccccc1)CCCC3 [Example 1, (11-Benzyl-7-carbamoyl-2,3,4,11-tetraydro-1H-benzo[a]carbazol-6-yloxy)acetic Acid] |
| 0.012 µM | NC(=O)c1cccc2c1c1c(OCC(=O)O)cc3c(c1n2Cc1ccccc1)CCC3 [Example 2, (10-Benzyl-6-carbamoyl-1,2,3,10-tetraydrocyclopenta[a]carbazol-5-yloxy)acetic Acid] |
| 0.0094 µM | COC(=O)COc1cc2ccccc2c2c1c1c(C(N)=O)cccc1n2Cc1ccccc1 [Example 3, (11-Benzyl-7-carbamoyl-11H-benzo [a]carbazol-6-yloxy)acetic acid methyl ester] |
